According to US20120294808A1, “Fluorescent Analogs of Neurotransmitters, Compositions Containing the Same and Methods of Using the Same” (UNIVERSITY OF MIAMI, priority 2009, published 2012):
“And” between values parts separate entries of the source, which are not always exact repeats. Equal entries are not always repeated. “Also recorded” adds a separate entry of the source.

What was measured:
[1] = tested on: Mixed cell cultures of neurons and astroglia isolated from the brain stems of E14 chick embryos; assay: Microwell plate reader cellular uptake assay, with and without clomipramine (SRI) pretreatment; type: cell-based; details: for effect of Clomipramine pretreatment on uptake: pre-treatment with Clomipramine, a serotonin reuptake inhibitor; for emission response (cellular uptake): λex=355 nm, λem=444 nm, versus controls A and B
Text: Mixed cell cultures of neurons and astroglia isolated from the brain stems of E14 chick embryos were exposed to solutions of 1-4. Serotonergic cells are clustered in the raphe nucleus (RN) located along the midline of the brain stem; they project into other regions of the brain including the hypothalamus, the olfactory bulb, cortex and cerebellum. […] The inherent fluorescence of the carbostyril core enabled direct detection of their cellular uptake utilizing a microwell plate reader (λex=355 nm, λem=444 nm).
It was believed that several modes of interaction are possible between the fluorescent probes and the cultured cells including specific interactions such as active transport via neurotransmitter transporters, or binding to neurotransmitter receptors, as well as non-specific interactions such as insertion into the cell membrane.

[2] = tested on: Neurons and astroglia isolated from E14 chick brainstems; assay: Live confocal imaging of cultured cells exposed to probe (405 nm excitation); type: cell-based
Method: In other words, whether the probe localized to the cell membrane, implying binding to transporters or receptors, or whether the probe was internalized, implying active transport into the cytosol. Neurons and astroglia isolated from E14 chick brainstems were grown on poly-L-lysine and laminin treated coverslips affixed to 35 mm culture dishes enabling live imaging of the cells in culture media. […] Cells were exposed to the probe solution for one minute, the media was then changed and additional images were captured. […] During the course of the imaging experiments, some photobleaching was observed.

[3] = Optical properties (absorption and emission spectra) of carbostyril probes 1-4; type: physicochemical; details: for small additional emission peak: acidic solutions, protonated form
Text: The optical properties of 1-4 were investigated in order to determine their suitability as fluorescent probes. Absorption spectra were obtained in neutral, acidic and basic solutions. […] Addition of acetic acid effected a hypsochromic shift (λmax=335 nm); the addition of triethylamine results in pronounced bathchromic (λmax=370 nm) and hyperchromic shifts. The linear combination of the absorption spectra with excess acid and excess base nearly perfectly overlaps with the spectrum obtained at pH 7.2 (FIG. 1). Therefore, it was determined that at near neutral pH (between approximately 6.5-7.5pH), both protonated and unprotonated species exist at roughly equal concentrations.
Thus, it was determined that in neutral and basic solutions, 1-4 emit from a deprotonated excited state species. Emission in acidic solutions is dominated by the deprotonated species as well. In the case of 3 and 4 a small peak at 380 nm was observed, which is likely due to photoemission from the protonated form of these molecules. While 5HT itself is fluorescent, single photon excitation of 5HT requires specialized optics and a UV excitation source (λmax,abs=277 nm). Furthermore, the autofluorescence of biological samples is also quite high in the UV region. The longer wavelength absorption of 1-4 allows selective photoexcitation of these fluorophores in the presence of aromatic amino acid residues and nucleobases.

[4] = Solubility of probes 1-4 in methanol and PBS; type: physicochemical; details: phosphate-buffered saline (PBS), aqueous buffer; read-out: concentration at which soluble in PBS
Text: The synthesis of analogs 2-4 followed a similar route: reaction of 5 with chloroethylamine followed by deprotection of the 6-hydroxy group produced 2; 3 and 4 resulted from reaction of 5 with bromoethanol and bromopropylbenzene respectively. In all cases the N-linked isomer was isolated.

[5] = tested on: dissociated e19 chick brain cells; assay: Example 4 uptake in brain cells (microwell plate assay and/or live cell confocal imaging, 405 nm laser); type: cell-based; details: 10 μM to 100 μM; absence of monoamine reuptake inhibitors
Method: Stock solutions of the compounds shown below (UM001-UM005, 8, 9 & 12A from Example 2) were used to produce compositions with final concentrations ranging from 10 μM to 100 μM. The compositions were then contacted with dissociated e19 chick brain cells, irradiated with a 405 nm laser, and imaged using confocal microscopy.

[6] = Optical spectroscopy (UV-vis and fluorescence) of the stilbazolium emitter library; type: physicochemical
Method: UV-vis spectroscopy was conducted to evaluate the absorption and emission spectra for each of the thirty-two emitters.

[7] = tested on: dissociated e19 chick brain cells; assay: 96-microwell plate uptake screen, with and without indatraline pretreatment; type: cell-based; details: pretreated with indatraline, a monoamine reuptake inhibitor
Method: The native fluorescence of the emitters enables direct detection of their uptake in dissociated e19 chick brain cells in a convenient 96-microwell plate format. This method enables screening for activity against multiple cell types and transporters including MATs and OCTs without the use of radioactive compounds. Solutions of 11A-18D were added to cell culture media to produce an emitter concentration of 100 μM. The incubation time used was 10 min. The fluorphore solution was removed, fresh media added and the plate immediately analyzed by microwell plate reader. Given the broad range of absorption and emission wavelengths, excitation varied from 355 nm to 500 nm with emission collected at +100 nm to +150 nm.
From this initial assay, it was possible to determine whether a compound associates with the cultured cells; however, it was not clear whether a particular compound was actively transported into cells or simply interacts with the cell membrane. The monoamine transporter (MAT) reuptake inhibitor, indatraline, was utilized to provide some insight into what mechanisms of cellular uptake are at play. Dissociated brain cells were pretreated with indatraline followed by each of the twelve emitters identified from the results shown in FIG. 5.

hDAT = biological target: T1, hDAT (Homo sapiens, UniProt Q01959); assay: Time-lapse confocal fluorescence microscopy of transporter-expressing HEK-293 cells (hDAT); type: cell-based; details: HEK-293 hDAT, 10 μM to 100 μM, images at 10 sec intervals
T1 construct: expressed in transfected cells
Text: (§1) HEK-293 cells stably expressing hDAT, hNET and hSERT were provided by Prof. R. Blakely (See, e.g., J. W. Schwartz, R. D. Blakely and L. J. DeFelice, J. Biol. Chem., 2003, 278, 9768.) and cultured on 35 mm dishes with a coverslip imaging window for confocal microscopy. […] Laser intensity and gain were not altered for subsequent images captured at 10 sec intervals. Representative images are shown in FIG. 7 together with intensity profiles captured from cell bodies.

[8] = tested on: live brainstem and cerebellum sections from e19 chicks; assay: Confocal imaging of live brain explant sections, with and without desipramine; set-up: species or system chick; details: for distribution in live brain sections: 405 nm excitation, cerebellum and brainstem
Text: This distribution is consistent with the behavior of these probes towards MAT-expressing HEK293 cells. The wider distribution of 13A may be due to binding to multiple transporter types, wh[…] may be limited to NET or DAT expressing catecholaminergic cells. […] Image overlays from 100 μm sagittal (FIG. 8A) and transverse (FIG. 8B) sections reveal that both probes are associated with cells of chick mesencephalon and metencephalon. The fluorophores were excited by laser at 405 nm. […] The scale bars for FIG. 8 are as follows: 8A & 8B=100 μm; C & D=10 μm; and E & F=50 μm).

hNET = biological target: T2, hNET (Homo sapiens, UniProt P23975); assay: Time-lapse confocal fluorescence microscopy of transporter-expressing HEK-293 cells (hNET); type: cell-based; details: HEK-293 hNET, 10 μM to 100 μM, images at 10 sec intervals
T2 construct: expressed in transfected cells
Text: as §1

hSERT = biological target: T3, hSERT (Homo sapiens, UniProt P31645); assay: Time-lapse confocal fluorescence microscopy of transporter-expressing HEK-293 cells (hSERT); type: cell-based; details: HEK-293 hSERT, 10 μM to 100 μM, images at 10 sec intervals
T3 construct: expressed in transfected cells
Text: as §1

[9] = tested on: monoamine oxidases (MAOs); assay: Conversion of profluorescent HNETP to HNEP+ in cell culture; type: cell-based
Text: In addition, it has been discovered that reduction of HNEP+ (UM006) results in the formation of HNETP (UM007). This provides a profluorescent option for screening pharmaceutical targets in vivo, which allows for the assessment of bioavailability of compounds in model organisms. In particular, the long wavelength absorption and emission of HNEP+ are not present in HNETP due to the loss of conjugation and the cationic pyridinium functionality. […] This reflects two distinct processes: accumulation of HNETP in the cells and the metabolism of HNETP to HNEP+ by MAOs. Inhibitors of MAO are important for several diseases including Parkinsons Disease as well as hypertensive disorders.

T2 sequence (P23975 whole entry): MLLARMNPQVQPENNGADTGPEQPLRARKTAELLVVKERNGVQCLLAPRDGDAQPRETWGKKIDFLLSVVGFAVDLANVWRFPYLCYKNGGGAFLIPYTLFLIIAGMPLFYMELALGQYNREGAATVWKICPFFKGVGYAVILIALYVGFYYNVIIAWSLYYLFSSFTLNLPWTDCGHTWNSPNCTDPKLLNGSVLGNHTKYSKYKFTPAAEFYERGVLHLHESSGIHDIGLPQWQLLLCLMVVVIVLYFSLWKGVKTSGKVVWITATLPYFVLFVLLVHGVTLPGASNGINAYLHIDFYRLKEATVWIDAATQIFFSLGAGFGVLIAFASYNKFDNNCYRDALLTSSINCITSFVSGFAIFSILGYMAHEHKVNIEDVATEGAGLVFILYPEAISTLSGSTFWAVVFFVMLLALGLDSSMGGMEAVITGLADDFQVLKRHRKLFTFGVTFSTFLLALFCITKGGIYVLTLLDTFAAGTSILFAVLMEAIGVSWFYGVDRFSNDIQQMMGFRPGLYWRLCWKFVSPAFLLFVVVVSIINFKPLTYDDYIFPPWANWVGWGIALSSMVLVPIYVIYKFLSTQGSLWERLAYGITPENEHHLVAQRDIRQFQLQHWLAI
T3 sequence (P31645 whole entry): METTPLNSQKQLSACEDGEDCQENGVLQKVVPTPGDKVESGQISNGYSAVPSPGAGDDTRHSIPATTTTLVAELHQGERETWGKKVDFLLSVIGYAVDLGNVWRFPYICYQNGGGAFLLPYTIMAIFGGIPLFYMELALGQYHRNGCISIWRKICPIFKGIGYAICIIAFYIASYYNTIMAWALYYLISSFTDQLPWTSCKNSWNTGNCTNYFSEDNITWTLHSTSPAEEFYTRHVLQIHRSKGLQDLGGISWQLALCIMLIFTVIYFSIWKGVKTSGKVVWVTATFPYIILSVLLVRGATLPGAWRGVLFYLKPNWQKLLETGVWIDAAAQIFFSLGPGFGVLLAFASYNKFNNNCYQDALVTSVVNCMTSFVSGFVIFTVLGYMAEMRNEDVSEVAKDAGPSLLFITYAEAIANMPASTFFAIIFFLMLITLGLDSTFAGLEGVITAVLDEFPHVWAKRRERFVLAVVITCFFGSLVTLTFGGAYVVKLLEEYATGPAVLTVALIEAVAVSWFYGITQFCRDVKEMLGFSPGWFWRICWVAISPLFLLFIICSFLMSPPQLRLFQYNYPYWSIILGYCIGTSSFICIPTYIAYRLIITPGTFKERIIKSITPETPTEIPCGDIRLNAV
T1 sequence (Q01959 whole entry): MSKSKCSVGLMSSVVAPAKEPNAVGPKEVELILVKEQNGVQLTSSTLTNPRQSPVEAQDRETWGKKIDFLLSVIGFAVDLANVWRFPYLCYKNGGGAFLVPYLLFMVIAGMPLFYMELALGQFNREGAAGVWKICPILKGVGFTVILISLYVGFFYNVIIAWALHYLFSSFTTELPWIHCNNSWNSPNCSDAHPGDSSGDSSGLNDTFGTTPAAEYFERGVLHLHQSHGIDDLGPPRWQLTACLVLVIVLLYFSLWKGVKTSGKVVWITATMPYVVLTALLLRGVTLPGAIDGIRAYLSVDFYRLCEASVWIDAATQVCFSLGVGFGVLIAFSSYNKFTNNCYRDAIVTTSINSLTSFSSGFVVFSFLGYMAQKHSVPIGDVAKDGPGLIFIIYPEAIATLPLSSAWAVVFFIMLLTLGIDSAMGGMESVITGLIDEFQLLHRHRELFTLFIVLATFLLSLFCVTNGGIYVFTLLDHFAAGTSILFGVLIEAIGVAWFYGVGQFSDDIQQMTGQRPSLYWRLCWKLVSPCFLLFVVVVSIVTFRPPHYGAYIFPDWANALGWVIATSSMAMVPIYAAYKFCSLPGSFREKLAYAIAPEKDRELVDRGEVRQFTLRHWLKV

NCCn1c(=O)cc(C(F)(F)F)c2ccc(O)cc21 [Compound 1]
effect of Clomipramine pretreatment on uptake [1]: significantly reduced
emission response (cellular uptake) [1]: high emission response
cell binding / illumination ([2]; one minute exposure, 405 nm excitation): bound to and illuminated most healthy cells
photostability during imaging ([2]; without antifade reagents): sufficiently stable to capture multiple images over 10 mins
subcellular localization of probe ([2]; z-stacks, one minute exposure): localized internally after only one minute of exposure; also recorded: localized to the interior of both astroglia and neurons

CN(C)CCn1c(=O)cc(C(F)(F)F)c2ccc(O)cc21 [Compound 2]
emission response (cellular uptake) [1]: did not differ significantly from the controls

O=c1cc(C(F)(F)F)c2ccc(O)cc2n1CCO [Compound 3]
emission response (cellular uptake) [1]: did not differ significantly from the controls
small additional emission peak [3]: 380 nm

O=c1cc(C(F)(F)F)c2ccc(O)cc2n1CCCc1ccccc1 [Compound 4]
effect of Clomipramine pretreatment on uptake [1]: significantly reduced
emission response (cellular uptake) [1]: to a lesser extent
solubility [4]: < 50 µM
small additional emission peak [3]: 380 nm

NCCc1c[nH]c2ccc(O)cc12 [Compound 5HT, 5-hydroxytryptamine, reference compound]
λmax,abs ([3]; 5HT comparison): 277 nm

CN(C)CCn1c(=O)cc(C(F)(F)F)c2ccc(O)cc21 [Compound 8]
uptake in dissociated chick brain cells [5]: little or no uptake

CN(C)CCN1C(=O)c2cccc3c(N)ccc(c23)C1=O [Compound 9]
uptake in dissociated chick brain cells [5]: little or no uptake

COc1ccc(/C=C/c2cc[n+](C)cc2)cc1 [Compound 12A]
absorption maxima ([6]; 10 μM solutions): 358 nm
emission maxima ([6]; 10 μM solutions): 475 nm and 490 nm
emission response after indatraline pretreatment [7]: maintained high responses even after indatraline pretreatment
uptake in dissociated chick brain cells [5]: accumulated

C[n+]1ccc(/C=C/c2ccc3ccccc3c2)cc1.[I-] [Compound 13A, (E)-1-Methyl-4-[2-(2-naphthalenyl)ethenyl]-pyridinium iodide]
overall brightness (ε·Φem) ([6]; versus acridine orange, Hoescht 33258 and DAPI): compares favorably
emission response after indatraline pretreatment [7]: affected by indatraline pretreatment
accumulation / transport in cells expressing DAT (hDAT): did not accumulate; also recorded: does not appear to be transported
distribution in live brain sections [8]: widely distributed in both the cerebellum and pons
accumulation / transport in cells expressing NET (hNET): did not accumulate; also recorded: does not appear to be transported
accumulation / transport in cells expressing SERT (hSERT): did not accumulate; also recorded: does not appear to be transported

C[n+]1ccc(/C=C/c2ccc3cc(O)ccc3c2)cc1 [Compound 14A, (E)-4-[2-(6-hydroxy-2-naphthalenyl)ethenyl]-1-methyl-pyridinium iodide]
distribution in live brain sections [8]: appears in distinct cell groupings along the cerebellar gyri and around the midline of the brainstem
effect of desipramine pretreatment on accumulation ([8]; pretreatment with desipramine, a norepinephrine reuptake inhibitor): limited the accumulation
accumulation / transport in cells expressing NET (hNET): preferentially accumulates in cells expressing NET; also recorded: rapidly accumulated
accumulation / transport in cells expressing SERT (hSERT): does not differ substantially from the control untransfected HEK cells

CN1CC=C(/C=C/c2ccc3cc(O)ccc3c2)CC1 [HNETP]
metabolic conversion by MAOs [9]: convert HNETP to HNEP+ in cell culture
